Measurements reported in US9233978B2, “6-fused heteroaryldihydropyrimidines for the treatment and prophylaxis of hepatitis B virus infection” (Hoffmann-La Roche Inc., priority 2014, dated 2016).
≈ marks a conversion by molar mass, not a printed value.

What was measured:
HBV = assay: Anti-HBV activity in vitro, HepG2.2.15 cells, extracellular HBV DNA by qPCR; assay type: cell-based; settings: Hepatitis B virus, HepG2.2.15, 120 h, HepG2.2.15 cells; HBV replication inhibited by 50%, extracellular HBV DNA by qPCR; five days after compound treatment; read-out: EC50
Outline: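 Extracellular HBV DNA in culture supernatant was measured by qPCR after nucleic acid extraction. The supernatant came from constitutively replicating HepG2.2.15 cells exposed for five days to half-log-diluted compounds, with DMSO at 0.5% final. Cells had been plated overnight at 37 °C beforehand.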

[1] = Cytotoxicity in HepDE19 cells (CCK-8) and selectivity index; assay type: cell-based; settings: human, HepDE19 cells; CCK-8 cell viability; five days after treatment
Outline: (§1)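 HepDE19 cells (DMEM-F12, 10% FBS) were treated with compound for five days, then given CCK-8 for 2 h at 37 °C and read at OD450 and OD630. CC50 is the concentration killing 50% of host cells. Selectivity index is CC50/EC50.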

HepDE19 cells = assay: as above; assay type: cell-based; settings: CC50 (HepDE19) value / EC50 (HepG2.2.15) value
Outline: as §1

[2] = Human microsomal metabolic stability; assay type: in vitro ADME; settings: human microsomes 0.5 mg/mL, 1 μM test compound, NADPH, 37° C., pH 7.4, 0-30 minutes
Outline: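 1 μM compound with 0.5 mg/mL human liver microsomal protein in 100 mM phosphate pH 7.4 at 37° C, started with 1 mM NADPH or a NADPH-regenerating system. Sampled at 0–30 min, quenched in cold methanol with tolbutamide internal standard; remaining parent quantified by LC-MS/MS.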

Lysa solubility = assay type: physicochemical; settings: phosphate buffer, pH 6.5, aqueous buffer, thermodynamic from solid, 0.05 M phosphate buffer (pH 6.5)
Outline: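 Duplicate samples dried from 10 mM DMSO stocks, taken up in 0.05 M phosphate buffer pH 6.5, stirred 1 h, shaken 2 h and left overnight. Filtrate and 1/10 dilution quantified by direct UV or HPLC-UV, in μg/mL; above 80% of the calculated maximum, reported as greater than that value.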

CYP3A4 = assay: Cytochrome P450 induction screening assay, mRNA induction in human cryopreserved hepatocytes; assay type: in vitro ADME; settings: CYP3A4 mRNA relative induction, 24 hours, test compound up to 10 μM
Protocol: Human cryopreserved hepatocytes (Life Technologies, Carlsbad, USA) were thawed and cultured in collagen I coated 96-well plates with a density of 52,000 cells/well. After attachment, medium was changed and cells were pre-cultured overnight in hepatocyte maintenance medium (HMM; Lonza, Switzerland).
Test compounds were dosed to the cells next morning at an indicated concentration (up to 10 μM) in HMM culture media containing gentamycin and a constant 0.1% DMSO. Similarly, dilutions of the positive inducer compounds omeprazole (prototypical inducer of human CYP1A2; final concentrations: 1 and 10 μM), phenobarbital (prototypical inducer of human CYP2B6; final concentrations: 100 and 1000 μM) and rifampicin (prototypical inducer of human CYP3A4; final concentrations: 1 and 10 μM) were prepared from 1000 fold DMSO stock solutions in HMM containing gentamycin. Medium change was then performed and cells were exposed for 24 hours to test compounds, positive inducer compounds, or vehicle (0.1% DMSO), respectively.
At the end of the compound exposure period, medium was removed and cells lysed using 100 μL/well MagNA Pure LC RNA isolation tissue lysis buffer (Roche Diagnostics AG, Rotkreuz, Switzerland). Plates were then sealed and frozen at −80° C. until further workup.
mRNA isolation was performed using the MagNA Pure 96 system (Roche Diagnostics AG, Rotkreuz, Switzerland) and the respective cellular RNA large volume kit (Roche Diagnostics AG, Rotkreuz, Switzerland) from thawed samples diluted 1:1 with PBS. The volume of the cell lysis and an elution volume of 100 μL were used. 20 μl of the resulting mRNA suspension was then used for reverse transcription using 20 μl of the transcript or first stand cDNA synthesis kit (Roche prime Supply, Mannheim, Germany). The resulting cDNA was diluted with 40 μl of H2O before using for qRT-PCR. qRT-PCR was performed by using the forward and the reverse primer, the corresponding UPL (all from Microsynth, Balgach, Switzerland) and the Taqman Fast advanced master mix (Applied Biosystems), on an ABI 7900 machine (Applied Biosystems).
qRT-PCR Ct-values for the respective P450s were put into relation to the Ct-value of RN18S1 (microsynth, Balgach, Switzerland) of the same sample. Doing so, a respective Δct-value was calculated. Using the average of all Δct-values for the vehicle control samples, a ΔΔct-value was calculated for each sample (ΔΔct-value(sample)=Δct-value(sample)−average of Δct-value of all vehicle controls). The fold induction of the respective sample was calculated as 2^(−ΔΔct). The individual fold induction values were then averaged per treatment condition (usually n=3 biological replicates).
Relative induction values to the respective positive inducer compound condition (10 μM omeprazole for CYP1A2; 1000 μM Phenobarbital for CYP2B6; 10 μM rifampicin for CYP3A4) were then calculated from the fold induction values as follows: Relative induction (%)=100×(T−V)/(P−V)

| SMILES | EC50 (HBV) [nM] | CC50 at 5 days [1] [nM] | Selectivity index (CC50/EC50) (HepDE19 cells) | Human Microsomal Clearance [2] [mL/min/kg] | solubility thermodynamic (Lysa solubility) [µg/mL] | % of Positive control (10 μM Rifampicin) (CYP3A4) [%] |
| --- | --- | --- | --- | --- | --- | --- |
| CCOC(=O)C1=C(CN2CCN3C(=O)N(C4CCC(C(=O)O)C4)C[C@@H]3C2)NC(c2nccs2)=N[C@H]1c1cccc(F)c1Cl (mixture of isomers) [Example 62, (R)-6-[(S)-2-((1R,3S)-3-Carboxy-cyclopentyl)-3-oxo-hexahydro-imidazo[1,5-a]pyrazin-7-ylmethyl]-4-(2-chloro-3-fluoro-phenyl)-2-thiazol-2-yl-1,4-dihydro-pyrimidine-5-carboxylic acid ethyl ester and (R)-6-[(S)-2-((1S,3R)-3-Carboxy-cyclopentyl)-3-oxo-hexahydro-imidazo[1,5-a]pyrazin-7-ylmethyl]-4-(2-chloro-3-fluoro-phenyl)-2-thiazol-2-yl-1,4-dihydro-pyrimidine-5-carboxylic acid ethyl ester] | 6 | > 100000 | >16667 | 1.7 | 374 | 0 |
| COC(=O)C1=C(CN2CCN3C(=O)N(C(C)(C)C)C[C@@H]3[C@H]2C(=O)O)NC(c2nccs2)=N[C@H]1c1ccc(F)cc1Cl (single isomer, unassigned) [Example 86B] | 4 | > 100000 | >25000 | 4.7 | > 740 | 11 |
| COC(=O)C1=C(CN2CCN3C(=O)N(C(C)(C)C)C[C@@H]3[C@H]2C(=O)O)NC(c2nccs2)=N[C@H]1c1ccc(F)c(F)c1C (single isomer, unassigned) [Example 88B] | 5 | > 100000 | >20000 | 4.5 | > 745 | 3.7 |
| CCOC(=O)C1=C(CN2CCN3C(=O)N(C)C[C@H]3[C@@H]2C(=O)O)NC(c2nccs2)=N[C@H]1c1cccc(F)c1Cl (single isomer, unassigned) [Example 91B] | 2 | > 100000 | >50000 | 5.8 | > 705 | 1.7 |
| CCOC(=O)C1=C(CN2CCN3C(=O)N(CC(C)(C)C(=O)O)C[C@@H]3C2)NC(c2nccs2)=N[C@H]1c1cccc(F)c1Cl [Example 19, 3-[(8aS)-7-[[(4R)-4-(2-chloro-3-fluoro-phenyl)-5-ethoxycarbonyl-2-thiazol-2-yl-1,4-dihydropyrimidin-6-yl]methyl]-3-oxo-5,6,8,8a-tetrahydro-1H-imidazo[1,5-a]pyrazin-2-yl]-2,2-dimethyl-propanoic acid] | 3 | > 100000 | >30303 | 0.4 | > 727 | 1 |
| CCOC(=O)C1=C(CN2CCN3C(=O)N(CC(C)C(=O)O)C[C@@H]3C2)NC(c2nccs2)=N[C@H]1c1cccc(F)c1Cl (stereo partly drawn) [Example 21, 3-[(8aS)-7-[[(4R)-4-(2-chloro-3-fluoro-phenyl)-5-ethoxycarbonyl-2-thiazol-2-yl-1,4-dihydropyrimidin-6-yl]methyl]-3-oxo-5,6,8,8a-tetrahydro-1H-imidazo[1,5-a]pyrazin-2-yl]-2-methyl-propanoic acid] | 16 | > 100000 | >6211 | 2.7 | > 786 | 2.4 |
| CCOC(=O)C1=C(CN2CCN3C(=O)N(C(C)(C)CC(=O)O)C[C@@H]3C2)NC(c2nccs2)=N[C@H]1c1cccc(F)c1Cl [Example 34, 3-[(8aS)-7-[[(4R)-4-(2-chloro-3-fluoro-phenyl)-5-ethoxycarbonyl-2-thiazol-2-yl-1,4-dihydropyrimidin-6-yl]methyl]-3-oxo-5,6,8,8a-tetrahydro-1H-imidazo[1,5-a]pyrazin-2-yl]-3-methyl-butanoic acid] | 8 | 81000 | 10655 | 1.8 | 326 (≈ 527 µM) | 0.2 |
| CCOC(=O)C1=C(CN2CCN3C(=O)N(CC4(C(=O)O)CC4)C[C@@H]3C2)NC(c2nccs2)=N[C@H]1c1cccc(F)c1Cl [Example 36, 1-[[(8aS)-7-[[(4R)-4-(2-chloro-3-fluoro-phenyl)-5-ethoxycarbonyl-2-thiazol-2-yl-1,4-dihydropyrimidin-6-yl]methyl]-3-oxo-5,6,8,8a-tetrahydro-1H-imidazo[1,5-a]pyrazin-2-yl]methyl]cyclopropanecarboxylic acid] | 6 | > 100000 | >18181 | 4.4 | 485 (≈ 786 µM) | 6 |
| COC(=O)C1=C(CN2CCN3C(=O)N(CC4(C(=O)O)CC4)C[C@@H]3C2)NC(c2nccs2)=N[C@H]1c1ccc(F)c(F)c1C [Example 38, 1-[[(8aS)-7-[[(4S)-4-(3,4-difluoro-2-methyl-phenyl)-5-methoxycarbonyl-2-thiazol-2-yl-1,4-dihydropyrimidin-6-yl]methyl]-3-oxo-5,6,8,8a-tetrahydro-1H-imidazo[1,5-a]pyrazin-2-yl]methyl]cyclopropanecarboxylic acid] | 5 | 100000 | 21276 | 2.0 | 627 (≈ 1040 µM) | 0.2 |
| COC(=O)C1=C(CN2CCN3C(=O)N(CC(C)(C)C(=O)O)C[C@@H]3C2)NC(c2nccs2)=N[C@H]1c1ccc(F)cc1Cl [Example 42, 3-[(8aS)-7-[[(4R)-4-(2-chloro-4-fluoro-phenyl)-5-methoxycarbonyl-2-thiazol-2-yl-1,4-dihydropyrimidin-6-yl]methyl]-3-oxo-5,6,8,8a-tetrahydro-1H-imidazo[1,5-a]pyrazin-2-yl]-2,2-dimethyl-propanoic acid] | 6 | > 100000 | >15625 | 2.0 | > 785 | 0.6 |
| COC(=O)C1=C(CN2CCN3C(=O)N(CCC(C)(C)C(=O)O)C[C@@H]3C2)NC(c2nccs2)=N[C@H]1c1ccc(F)cc1Cl [Example 54, 4-[(8aS)-7-[[(4R)-4-(2-chloro-4-fluoro-phenyl)-5-methoxycarbonyl-2-thiazol-2-yl-1,4-dihydropyrimidin-6-yl]methyl]-3-oxo-5,6,8,8a-tetrahydro-1H-imidazo[1,5-a]pyrazin-2-yl]-2,2-dimethyl-butanoic acid] | 8 | > 100000 | >12500 | 4.6 | 387 (≈ 625 µM) | 0 |
